Measured values from patent publication US9642819B2, “Low dosage serotonin 5-HT2A receptor agonist to suppress inflammation” (BOARD OF SUPERVISORS OF LOUISIANA STATE UNIVERSITY AND …, priority 2008, dated 2017).
“Also recorded” adds a separate entry of the source.

Experiments:
[1] = tested on: nitrite accumulation in C6 glioma cells; settings: cocktail of TNF-α, read-out: IC50 for partial block of LPS and cytokine stimulated nitrite accumulation; cited from earlier work
[2] = tested on: ICAM-1 gene expression; experiment: TNF-α induced ICAM-1 gene expression in rat C6 glioma cells; type: cell-based; settings: 1 nM and 50 nM prior to TNF-α
Experimental: Experiments were conducted to analyze for the effect of 5-HT2A receptor activation on proinflammatory marker expression in other cell types. Human neuroblastoma cells (SHSY5Y) and rat glioma cells (C6) can be obtained from the American Type Culture Collection (Manassas, Va.), but were provided Purdue University. The cells were grown in DMEM+10% FBS. DMEM was made and provided by the Cell and Molecular Core of the Mentoring in Cardiovascular Biology COBRE center at LSUHSC-NO. FBS was purchased from Invitrogen (Carlsbad, Calif.). Primary rat aortic endothelial cells were prepared fresh and provided by the Cell and Molecular Core of the Mentoring in Cardiovascular Biology COBRE center at LSUHSC-NO. Cells were tested at passages 3-4. Cells were grown in endothelial cell growth medium (Cell Applications, Inc.). Primary rat bronchoaveolar macrophage cells were obtained by lung lavage from rats and used at day 3 or 4 post plating in DMEM+10% FBS.
All treatments with 5-HT2A receptor agonists occurred 1 hour prior to the addition of TNF-alpha (10 ng/ml) or LPS (100 ng or 1 mg) depending on the experiment. All RNA isolations, cDNA synthesis, QPCR gene expression assays examining ICAM1, VCAM1, and IL6, and data analysis were performed as described above in Example 1, except the primers were different for the human cell experiment. […]

[3] = tested on: ICAM-1 gene expression; experiment: TNF-α induced ICAM-1 gene expression in primary rat aortic smooth muscle cells; type: cell-based; settings: for block of TNF-α induced ICAM1 gene expression at 1 nM: VCAM1 and IL6 identical
Experimental: (§1) RASM cells and treatment. Rat aortic smooth muscle (RASM) cells were isolated from adult 180 g male Sprague-Dawley rats and provided by the Cell and Molecular Core Facility in the Department of Pharmacology at LSUHSC-NO. Isolated RASM cells were grown in M-199 media containing 10% fetal bovine serum (Gibco), 100 units/mL penicillin, and 100 µg/mL streptomycin, and incubated at 37° C. in 5% CO2. Cells for all assays were used between passages 3 and 5. Prior to treatments, cells were grown in M-199 media with 10% fetal bovine serum (FBS) until 30-50% confluent. For most assays, cells were treated with (R)-DOI, or other drugs as indicated, at specific concentrations for 24 hours, followed by TNF-α (10 ng/ml) and (R)-DOI at the same pretreatment concentrations in fresh M-199 media. After another 24 hours, the cells were scraped, pelleted, and processed for RNA.
(§2) RNA isolation and Quantitative Realtime-PCR. RNA was extracted from cells using Illustra RNAspin Mini kits from GE Healthcare Life Sciences (Piscataway, N.J.) following protocols supplied by the manufacturer. First strand cDNA was generated using the ImProm-II cDNA synthesis kit (Promega) following the manufacturers protocols. Q-RT-PCR was performed using the ProbeLibrary system from Roche (Indianapolis, Ind.) in combination with the HotStart-IT probe qpcr master mix from USB Biological (Cleveland, Ohio) following manufactures protocols.
(§3) Primers were synthesized by IDT (Coralville, Iowa). ProbeLibrary probes from Roche were: U3, U74, U13, U106, U79 for 5-HT2AR, ICAM-1, VCAM-1, IL-6, and cyclophillin B, respectively. Quantitative determination of gene expression levels using a 2-step cycling protocol was performed on a MyIQ-5 Cycler (Bio-Rad, Hercules Calif.). Relative gene expression levels were calculated using the 2^[−ΔΔC(T)] method. Levels of all targets from the test samples were normalized to rat cyclophillin B expression.
(§4) To examine the effects of 5-HT2A receptor activation on TNF-α mediated proinflammatory gene expression, RASM cells were pretreated with (R)-DOI, a selective 5-HT2 receptor agonist, as described above. Dose-response curves were determined for the effects on ICAM-1, VCAM-1, and IL-6 gene expression for twelve different concentrations of (R)-DOI ranging from 0.1 pM to 100 nM, with each experiment repeated in triplicate. In FIGS. 1A-1C, the Y-axis represents a percent of TNF-α for the dose of (R)-DOI indicated on the X-axis.

[4] = tested on: ICAM-1, VCAM-1, and IL-6 gene expression; experiment: TNF-α induced proinflammatory gene expression (ICAM-1, VCAM-1, IL-6) by Q-RT-PCR in RASM cells; type: cell-based, rat; settings: for effect of receptor antagonist on the inhibitory effects of (R)-DOI: antagonist 100 nM 30 minutes prior to 1 nM (R)-DOI, then TNF-α
Experimental: as §1, §2, §3, §4

[5] = tested on: nuclear translocation of p65; experiment: Nuclear translocation of NF-κB subunit p65 in RASM cells; type: cell-based, rat; settings: pretreatment of the 1 hour time point
Experimental: Nuclear Translocation of p65. RASM cells were grown in M-199 medium+10% FBS until 50% confluent in 8 well chamber slides. Cells were treated with 1 nM (R)-DOI for various times as indicated, and TNF-α (10 ng/ml; tumor necrosis factor alpha) added. Thirty minutes after TNF-α treatment, cells were fixed and processed with rabbit anti p65 primary and Alexafluor 488-conjugated goat secondary antibodies as described in Zerfaoui et al. (2008) (Zerfaoui et al., 2008). Fluorescent signal was visualized on a Leica DMRA2 fluorescent microscope.
Both ICAM-1 and VCAM-1 gene transcription during inflammatory processes is regulated by the transcription factor NF-κB (Collins et al., 1995). During this process, NF-κB must be activated, and then translocated from the cytoplasm to the nucleus, where it promotes gene transcription. To investigate whether 5-HT2A receptor stimulated inhibition of NF-κB activation and translocation might be a possible mechanism for blockade of proinflammatory gene expression changes, a series of immunohistochemical experiments were conducted examining p65 translocation in RASM cells. TNF-α treatment for 30 minutes caused the expected dramatic shift in localization of the p65 subunit of NF-κB from the cytoplasm to the nucleus (FIG. 7A). […]

[6] = tested on: Nitric Oxide Synthetase (NOS) activity; experiment: NOS activity: nitrite levels in culture medium of RASM cells after TNF-α; type: cell-based, rat; settings: 100 nM prior to 1 nM (R)-DOI
Experimental: Nitric Oxide Synthetase (NOS) Activity. NOS activity was determined by detection of nitrite levels in the cell culture medium following (R)-DOI/TNF-α treatments utilizing the Nitrate Detection kit from Assay Designs (Ann Arbor, Mich.) following the manufacturers protocols. Absorbances were detected at 539 nm on a […] SpectraMax M2 plate reader.
A key participant in inflammatory processes is NOS activity (Guzik et al., 2003). NOS activity can regulate NF-kB activation (Ckless et al., 2007), and cytokine pathway-activated NF-kB can transcriptionally regulate iNOS gene expression (Guo et al., 2007). To examine the effects of 5-HT2A receptor activation on this component of inflammatory mechanisms, primary RASM cells were used to examine the ability of 1 nM (R)-DOI to block TNF-α mediated increases in nitrite levels.
As an indicator of NOS activity, nitrite levels were measured in the cell culture media after treatments and are shown in FIG. 6 as % control. […] Pretreatment with 1 nM (R)-DOI for 24 hours blocked TNF-α mediated increases in nitrite accumulation (DOI+T).

[7] = target: histamine H1 receptors (Homo sapiens, UniProt P35367); settings: cited from earlier work
histamine H1 receptors, sequence (P35367 whole entry): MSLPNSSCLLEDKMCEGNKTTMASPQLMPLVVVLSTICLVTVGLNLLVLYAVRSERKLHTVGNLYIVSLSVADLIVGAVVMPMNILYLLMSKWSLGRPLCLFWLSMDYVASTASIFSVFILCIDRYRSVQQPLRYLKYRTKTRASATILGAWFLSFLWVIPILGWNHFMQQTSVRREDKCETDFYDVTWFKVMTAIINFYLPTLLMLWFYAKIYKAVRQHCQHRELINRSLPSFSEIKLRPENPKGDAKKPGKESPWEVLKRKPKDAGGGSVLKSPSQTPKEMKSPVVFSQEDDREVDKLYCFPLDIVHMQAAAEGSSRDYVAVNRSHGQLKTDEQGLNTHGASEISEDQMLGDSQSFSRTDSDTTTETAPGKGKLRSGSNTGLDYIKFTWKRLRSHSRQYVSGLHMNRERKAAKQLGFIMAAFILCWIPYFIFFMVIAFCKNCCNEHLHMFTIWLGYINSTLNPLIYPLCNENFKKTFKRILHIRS

[8] = tested on: α1-adrenergic receptors; settings: cited from earlier work
[9] = target: 5-HT2A receptors (Homo sapiens, UniProt P28223); settings: cited from earlier work
5-HT2A receptors, sequence (P28223 whole entry): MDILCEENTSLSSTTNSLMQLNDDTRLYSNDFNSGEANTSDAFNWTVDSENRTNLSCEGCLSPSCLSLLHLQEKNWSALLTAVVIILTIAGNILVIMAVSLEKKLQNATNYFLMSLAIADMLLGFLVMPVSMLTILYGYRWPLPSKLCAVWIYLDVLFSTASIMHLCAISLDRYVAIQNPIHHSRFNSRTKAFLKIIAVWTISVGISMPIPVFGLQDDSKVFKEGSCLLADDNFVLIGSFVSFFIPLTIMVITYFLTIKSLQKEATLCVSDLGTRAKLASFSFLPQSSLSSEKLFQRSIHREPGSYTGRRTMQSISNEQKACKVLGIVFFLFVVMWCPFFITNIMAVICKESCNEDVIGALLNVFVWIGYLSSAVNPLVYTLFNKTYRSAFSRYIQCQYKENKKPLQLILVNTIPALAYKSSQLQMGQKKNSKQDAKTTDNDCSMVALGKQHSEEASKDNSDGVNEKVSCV

SMILES: COc1cc(CC(C)N)c(OC)cc1I (racemic) [DOI, 1-(2,5-dimethoxy-4-iodophenyl)-2-aminopropane]
- IC50 [1]: 8 ± 3 nM

SMILES: CC1CC(C)N1C(=O)C1C=C2c3cccc4[nH]cc(c34)CC2N(C)C1 (stereo not drawn) [LA-SS-Az, (2′S,4′S)-(+)-9,10-Didehydro-6-methylergoline-8β-(trans-2,4-dimethylazetidide)]
- effect on ICAM-1 gene expression in rat glioma cells [2]: blocked
- induced gene expression blocked at 1 nM ([3]; 1 nM pretreatment): about 50%
- block of TNF-α induced ICAM1 gene expression at 1 nM ([3]; 1 nM pretreatment): moderately effective
- block of TNF-α induced ICAM1 gene expression at 50 nM ([3]; 50 nM pretreatment): effectively blocked

SMILES: CCN(CC)C(=O)[C@@H]1C=C2c3cccc4[nH]cc(c34)C[C@H]2N(C)C1 [LSD, Lysergic acid diethylamide, reference compound]
- block of TNF-α induced ICAM1 gene expression at 1 nM ([3]; 1 nM pretreatment): weak to moderate effects
- TNF-α effect blocked at 50 nM ([3]; 50 nM pretreatment): about 85%

SMILES: COc1cccc([C@H](O)C2CCN(CCc3ccc(F)cc3)CC2)c1OC [M100907, R(+)-a-(2,3-dimeth-oxyphenyl)-1-[2-(4-fluorophenylethyl)]-4-pipeddine-methanol, reference compound]
- effect of receptor antagonist on the inhibitory effects of (R)-DOI [4]: blocked the effects of (R)-DOI
- effect of receptor antagonist on the inhibitory effects of (R)-DOI ([4]; listed as MDL100907): completely blocked

SMILES: CCCCCCCCCCCCCC(=O)O[C@@H]1[C@@H](C)[C@@]2(O)[C@@H](C=C(CO)C[C@]3(O)C(=O)C(C)=C[C@@H]23)[C@@H]2C(C)(C)[C@]12OC(C)=O [PMA, Phorbol 12-myristate 13-acetate, reference compound]
- effect on TNF-α mediated expression in the absence of (R)-DOI ([4]; 100 nM prior to TNF-α, ICAM1, VCAM1, IL6): blocks the effects of TNF-α; also recorded: completely block

SMILES: COc1cc(OC)c(C(=O)CCCCN2CCC3(CC2)NC(=O)NC3=O)cc1NS(=O)(=O)c1ccc(C(F)(F)F)cc1.Cl [RS102221, reference compound]
- effect of receptor antagonist on the inhibitory effects of (R)-DOI ([4]; hydrochloride): did not block; also recorded: had no effect

SMILES: Cc1cc(NC(=O)Nc2ccc3c(ccn3C)c2)sn1 [SB204741, N-(1-Methyl-1H-indolyl-5-yl)-N″-(3-methyl-5-isothiazolyl)urea, reference compound]
- effect of receptor antagonist on the inhibitory effects of (R)-DOI [4]: did not block; also recorded: had no effect

SMILES: COc1ccc2c(c[n+](C)c3c4cc5c(cc4ccc23)OCO5)c1OC.[Cl-] [chelerythrine, 1,2-Dimethoxy-12-methyl[1,3]benzodioxolo[5,6-c]phenanth ridinium chloride, reference compound]
- effect of PKC inhibitor on (R)-DOI induced inhibition of p65 translocation [5]: blocked
- effect of kinase inhibitor on (R)-DOI inhibition of TNF-α induced ICAM-1 expression ([3]; inhibitor 100 nM 30 minutes prior to 1 nM (R)-DOI, then TNF-α): blocked the effects of TNF-α-induced gene expression; also recorded: completely inhibited
- effect of PKC inhibitor on (R)-DOI block of nitrite accumulation [6]: completely inhibited

SMILES: O=C(c1ccc(F)cc1)C1CCN(CCn2c(=O)[nH]c3ccccc3c2=O)CC1 [ketanserin]
- potency at blocking histamine H1 receptors [7]: equipotent
- affinity for α1-adrenergic receptors [8]: high affinity
- selectivity for 5-HT2A receptors over 5-HT2C receptors [9]: ~20 fold
